Data taken from patent US20030235916A1, “Novel methods for the delivery of polynucleotides to cells” (priority 2002, published 2003).
Each block holds one compound with its values, some of them ahead of it. d = 2'-deoxy (DNA); r = 2'-OH (RNA)

Legend:
[1] = tested on: rhodamine labeled PCILuc DNA (pDNA); assay: Rhodamine labeled DNA condensation with cationic surfactants (fluorescence quenching), Example 19; assay type: physicochemical
Method: (§1) PCILuc DNA (pDNA) [Zhang et al. 1997] was modified to a level of 1 rhodamine per 100 bases using Mirus' Label IT® Rhodamine kit (Rhodamine Containing DNA Labeling Reagent, Mirus Corporation). The modified pDNA (10 μg) was mixed with pDNA that was not labeled (90 μg) in water and diluted to a final concentration of 1 μg/μL with water. The modified pDNA/pDNA mixture (5 μg) was diluted with water to a final volume of 500 μL. Different amounts of CTAB were added to the solution and the fluorescence intensity of the solution was measured using a Cary Eclipse Fluorescence Spectrophotometer (ex=555, em=585, Varian, Inc.). Trubetskoy et al have shown that rhodamine labeled pDNA undergoes fluorescence quenching as the pDNA is condensed [Trubetskoy, 1999].
as §1, with “It®” for “IT®”, “dodecylamine hydrochloride” for “CTAB”

[2] = tested on: luciferase expression (pCI Luc / pCI Ren) in liver of ICR mice; assay: HP tail vein dual luciferase: siRNA delivery (Example 77); assay type: in vivo; conditions: hydrophobic siRNA
Method: HP Tail Vein Dual Luciferase: siRNA delivery Five complexes were prepared as follows:
Tail vein injections of 1.0 mL per 10 g body weight (˜2.5 ml) were preformed on ICR mice (n=2) using a 30 gauge, 0.5 inch needle. Injections were done manually with injection times of 4-5 sec [Zhang et al. 1999; Liu et al. 1999]. One day after injection, the livers were harvested and homogenized in lysis buffer (0.1% Triton X-100, 0.1 M K-phosphate, 1 mM DTT, pH 7.8). Insoluble material was cleared by centrifugation and 10 μl of the cellular extract or extract diluted 10× was analyzed for luciferase activity as previously reported [Wolffetal 1990].

Compound: CCCCCCCCCCCCCCCC[N+](C)(C)C.[Br-] [CTAB, cetyltrimethylammonium bromide, reference compound]
surfactant concentration at which the pDNA is condensed ([1]; 5 μg rhodamine pDNA mixture in 500 μL water): 0.33 mM
Fluor Int ([1]; N/P 0.4, 2 μg CTAB, 0.011 mM CTAB, 5 μg pDNA in 500 μL water, ex=555, em=585): 201.540
Fluor Int ([1]; N/P 0.7, 4 μg CTAB, 0.022 mM CTAB): 159.277
Fluor Int ([1]; N/P 1.1, 6 μg CTAB, 0.033 mM CTAB): 85.253
Fluor Int ([1]; N/P 1.4, 8 μg CTAB, 0.044 mM CTAB): 81.625
Fluor Int ([1]; N/P 1.8, 10 μg CTAB, 0.055 mM CTAB): 78.471
Fluor Int ([1]; N/P 2.2, 12 μg CTAB, 0.066 mM CTAB): 74.722
Fluor Int ([1]; N/P 2.5, 14 μg CTAB, 0.077 mM CTAB): 67.267
Fluor Int ([1]; N/P 2.9, 16 μg CTAB, 0.088 mM CTAB): 62.799

Compound: GL3-153: siRNA duplex, SEQ ID 12 and its compliment SEQ ID 13, Dharmacon (sense CUUACGCUGAGUACUUCGATT; antisense UCGAAGUACUCAGCGUAAGTT; sugars from the 5' end r19 d2, backbone not given here; listed as Photinus pyralis)
inhibition of luciferase expression [2]: inhibits luciferase expression

Fluor Int ([1]; N/P 0.6, 2 μg NC12, 0.018 mM NC12, 5 μg pDNA in 500 μL water, ex=555, em=585): 183.656
Fluor Int ([1]; N/P 1.2, 4 μg NC12, 0.036 mM NC12): 106.095
Fluor Int ([1]; N/P 1.8, 6 μg NC12, 0.054 mM NC12): 95.586
Fluor Int ([1]; N/P 2.4, 8 μg NC12, 0.072 mM NC12): 86.119
Fluor Int ([1]; N/P 3.0, 10 μg NC12, 0.090 mM NC12): 77.670
Fluor Int ([1]; N/P 3.6, 12 μg NC12, 0.108 mM NC12): 68.208
Fluor Int ([1]; N/P 4.2, 14 μg NC12, 0.126 mM NC12): 62.115
Fluor Int ([1]; N/P 4.8, 16 μg NC12, 0.144 mM NC12): 60.158
Fluor Int ([1]; N/P 5.4, 18 μg NC12, 0.162 mM NC12): 53.467
Fluor Int ([1]; N/P 6.0, 20 μg NC12, 0.180 mM NC12): 46.790
Fluor Int ([1]; N/P 6.5, 22 μg NC12, 0.198 mM NC12): 43.375
Fluor Int ([1]; N/P 7.1, 24 μg NC12, 0.216 mM NC12): 45.000
Compound: CCCCCCCCCCCCN.Cl [NC12, dodecylamine hydrochloride]
